From the supplement of paper PMC10307832

Key:
Assay in all cases: relative viability (nuclei count vs DMSO), 5 days (fraction); higher = more cells survive
BEN = system: BEN
In short: (§1)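 Nuclei were stained with Hoechst during a one-step fixation (final 0.05% Triton X-100, 1% formaldehyde, 1 ug/ml Hoechst) carried out 5 days after dosing, then counted on 4× images. The cells, lung cancer lines in 1536-well plates, had been dosed by pin tool the day after seeding with one drug alone or a fixed anchor-drug dose plus five library-drug doses (not always all listed) in √10 steps. Relative viability is the nuclei count in treated wells divided by that in vehicle wells, and each value is the median of duplicate plates.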

EKVX = system: EKVX
In short: as §1

HARA = system: HARA
In short: as §1

HCC-366 = system: HCC-366
In short: as §1

HCC-827 = system: HCC-827
In short: as §1

LOU-NH91 = system: LOU-NH91
In short: as §1

NCI-H1355 = system: NCI-H1355
In short: as §1

NCI-H1437 = system: NCI-H1437
In short: as §1

NCI-H1734 = system: NCI-H1734
In short: as §1

NCI-H1792 = system: NCI-H1792
In short: as §1

NCI-H1993 = system: NCI-H1993
In short: as §1

NCI-H2009 = system: NCI-H2009
In short: as §1

NCI-H2087 = system: NCI-H2087
In short: as §1

NCI-H2405 = system: NCI-H2405
In short: as §1

NCI-H647 = system: NCI-H647
In short: as §1

NCI-H661 = system: NCI-H661
In short: as §1

SK-LU-1 = system: SK-LU-1
In short: as §1

SMILES: COc1nc(C)cnc1NS(=O)(=O)c1cccnc1-c1ccc(-c2nnco2)cc1 [Zibotentan] + CC(C)C[C@H](NC(=O)[C@H](Cc1ccccc1)NC(=O)c1cnccn1)B(O)O [Bortezomib] (partner 0.002 µM)
- relative viability (BEN; first compound 0.08 µM): 0.912
- relative viability (BEN; first compound 0.253 µM): 0.824
- relative viability (BEN; first compound 0.8 µM): 0.792
- relative viability (BEN; first compound 2.53 µM): 0.593
- relative viability (EKVX; first compound 0.08 µM): 1.13
- relative viability (EKVX; first compound 0.253 µM): 1.17
- relative viability (EKVX; first compound 0.8 µM): 1.11
- relative viability (EKVX; first compound 2.53 µM): 1.07
- relative viability (HARA; first compound 0.08 µM): 1.18
- relative viability (HARA; first compound 0.253 µM): 1.13
- relative viability (HARA; first compound 0.8 µM): 1.15
- relative viability (HARA; first compound 2.53 µM): 1.19
- relative viability (HCC-366; first compound 0.08 µM): 1.14
- relative viability (HCC-366; first compound 0.253 µM): 1.03
- relative viability (HCC-366; first compound 0.8 µM): 0.795
- relative viability (HCC-366; first compound 2.53 µM): 1.11
- relative viability (HCC-827; first compound 0.08 µM): 1.08
- relative viability (HCC-827; first compound 0.253 µM): 0.994
- relative viability (HCC-827; first compound 0.8 µM): 1.05
- relative viability (HCC-827; first compound 2.53 µM): 1.04
- relative viability (LOU-NH91; first compound 0.08 µM): 0.469
- relative viability (LOU-NH91; first compound 0.253 µM): 0.443
- relative viability (LOU-NH91; first compound 0.8 µM): 0.538
- relative viability (LOU-NH91; first compound 2.53 µM): 0.815
- relative viability (NCI-H1355; first compound 0.08 µM): 1.2
- relative viability (NCI-H1355; first compound 0.253 µM): 1.36
- relative viability (NCI-H1355; first compound 0.8 µM): 1.05
- relative viability (NCI-H1355; first compound 2.53 µM): 1.24
- relative viability (NCI-H1437; first compound 0.08 µM): 0.486
- relative viability (NCI-H1437; first compound 0.253 µM): 0.504
- relative viability (NCI-H1437; first compound 0.8 µM): 0.454
- relative viability (NCI-H1437; first compound 2.53 µM): 0.53
- relative viability (NCI-H1734; first compound 0.08 µM): 1.1
- relative viability (NCI-H1734; first compound 0.253 µM): 0.894
- relative viability (NCI-H1734; first compound 0.8 µM): 0.972
- relative viability (NCI-H1734; first compound 2.53 µM): 1
- relative viability (NCI-H1792; first compound 0.08 µM): 0.912
- relative viability (NCI-H1792; first compound 0.253 µM): 0.833
- relative viability (NCI-H1792; first compound 0.8 µM): 0.921
- relative viability (NCI-H1792; first compound 2.53 µM): 0.935
- relative viability (NCI-H1993; first compound 0.253 µM): 1.05
- relative viability (NCI-H1993; first compound 0.8 µM): 0.994
- relative viability (NCI-H1993; first compound 2.53 µM): 1.8
- relative viability (NCI-H2009; first compound 0.08 µM): 1.04
- relative viability (NCI-H2009; first compound 0.253 µM): 0.973
- relative viability (NCI-H2009; first compound 0.8 µM): 1.11
- relative viability (NCI-H2009; first compound 2.53 µM): 1.12
- relative viability (NCI-H2087; first compound 0.08 µM): 0.939
- relative viability (NCI-H2087; first compound 0.253 µM): 0.801
- relative viability (NCI-H2087; first compound 0.8 µM): 0.736
- relative viability (NCI-H2087; first compound 2.53 µM): 0.873
- relative viability (NCI-H2405; first compound 0.08 µM): 1.02
- relative viability (NCI-H2405; first compound 0.253 µM): 1.05
- relative viability (NCI-H2405; first compound 0.8 µM): 0.991
- relative viability (NCI-H2405; first compound 2.53 µM): 0.963
- relative viability (NCI-H647; first compound 0.08 µM): 0.859
- relative viability (NCI-H647; first compound 0.253 µM): 0.818
- relative viability (NCI-H647; first compound 0.8 µM): 0.891
- relative viability (NCI-H647; first compound 2.53 µM): 1.11
- relative viability (NCI-H661; first compound 0.08 µM): 1.02
- relative viability (NCI-H661; first compound 0.253 µM): 0.656
- relative viability (NCI-H661; first compound 0.8 µM): 0.89
- relative viability (NCI-H661; first compound 2.53 µM): 0.841
- relative viability (SK-LU-1; first compound 0.08 µM): 1.17
- relative viability (SK-LU-1; first compound 0.253 µM): 0.988
- relative viability (SK-LU-1; first compound 0.8 µM): 1.08
- relative viability (SK-LU-1; first compound 2.53 µM): 1.11
